According to patent publication US10993951B2, “Fosfomycin formulation for parenteral administration” (priority 2016, dated 2021):
Where two headings read alike, the source gives them in different places.

Assays:
Type in all cases: cell-based
Escherichia coli AG 1215 [1] = assay: MIC by tube dilution in microtiter plates, stored fosfomycin solution; details: read-out: minimal inhibitory concentration (MIC)
[2] = test system: Staphylococcus aureus ATTC 49775; assay: as above; details: read-out: minimal inhibitory concentration (MIC)
Escherichia coli AG 1215 [3] = assay: as above; details: read-out: minimal inhibitory concentration (MIC); remark: listed apart in the source
Excerpt: (§1) The objective of the present investigation was to find out whether the antimicrobial activity of fosfomycin with a pH suitable for intravenous administration is maintained in a solvent suitable for intravenous use. For this, fosfomycin disodium (14.5 mmol sodium/g) and succinic acid were used to adjust the pH (0.025 grams of succinic acid per gram of fosfomycin).
(§2) A stock solution of 4 g of fosfomycin disodium and succinic acid (0.025 grams of succinic acid per gram of fosfomycin, corresponding to about 3 g of fosfomycin) in 10 ml distilled water was prepared and divided into 5 cryotubes at 2 ml each, and the solution was exposed at different temperatures as follows:
(§3) Aliquots of 2 ml of the sample were stored at −80° C., at refrigerator temperature (2-8° C.), at room temperature (20-25° C.), and at 45-65° C. until the test end. Another 2 ml of the stock solution were stored at refrigerator temperature (2-8° C.) and autoclaved before the tests at 125° C. for 30 minutes. After that, all samples were tested for their antimicrobioal activity.
(§4) To determine the antimicrobial activity of fosfomycin, the minimal inhibitory concentration (MIC) of the 4 mentioned bacteria strains was determined by a tube dilution method in microtiter plates using Mueller-Hinton broth. For the inoculation of the microtiter plates, the inoculum was adjusted to 1.5×104 germs/ml. The evaluation was made after 24 hours of incubation at 37° C.
(§5) Samples were taken, starting with 2,000 μg/ml test substance, diluted by a factor 2. Serial dilutions of 2,000 μg/ml to […] were prepared.

[4] = test system: Staphylococcus aureus ATTC 33592; assay: as above; details: read-out: minimal inhibitory concentration (MIC)
Excerpt: as §1, §2, §3, §4, §5

[5] = test system: Staphylococcus hominis AG 1115; assay: as above; details: read-out: minimal inhibitory concentration (MIC)
Excerpt: as §1, §2, §3, §4, §5

[6] = test system: Staphylococcus aureus ATTC 49775; assay: as above; details: read-out: minimal inhibitory concentration (MIC); remark: listed apart in the source
Excerpt: as §1, §2, §3, §4, §5

[7] = test system: Staphylococcus hominis AG 1115; assay: as above; details: read-out: minimal inhibitory concentration (MIC); remark: listed apart in the source
[8] = test system: tested bacteria such as Staphylococcus and Escherichia; assay: Stability studies: antimicrobial activity kept on storage; details: aqueous solution with an acid; after repeated autoclaving at 125° C. and months of storage
Excerpt: as §1, §2, §3
To determine the antimicrobial activity of fosfomycin, the minimal inhibitory concentration (MIC) of the 4 mentioned bacteria strains was determined by a tube dilution method in microtiter plates using Mueller-Hinton broth. For the inoculation of the microtiter plates, the inoculum was adjusted to 1.5×104 germs/ml. […]

[9] = test system: Staphylococcus aureus ATTC 33592; assay: MIC by tube dilution in microtiter plates, stored fosfomycin solution; details: read-out: minimal inhibitory concentration (MIC); remark: listed apart in the source

C[C@@H]1O[C@@H]1P(=O)(O)O [Fosfomycin, fosfomycin]
250 µg/mL: MIC (Escherichia coli AG 1215 [3]; AG1215, 0 h, storage temp. 20-25 °C, storage period 0 days) | MIC (Escherichia coli AG 1215 [3]; AG1215, 456 h, storage temp. 45-65 °C, storage period 19 days)
effective: effectiveness against the tested bacteria after storage [8]
7.8 µg/mL: MIC ([2]; ATTC49775, 0 h, storage temp. 4-8 °C, storage period 0 days) | MIC ([4]; ATTC33592, 0 h, storage temp. 20-25 °C, storage period 0 days) | MIC ([4]; ATTC33592, 125 °C (refrigerator storage, autoclaved 30 minutes before tests), storage period 31 days) | MIC ([4]; ATTC33592, 456 h, storage temp. −80 °C, storage period 19 days) | MIC ([4]; ATTC33592, storage temp. 20-25 °C, storage period 31 days) | MIC ([4]; ATTC33592, storage temp. 45-65 °C, storage period 31 days) | MIC ([4]; ATTC33592, storage temp. −80 °C, storage period 31 days) | MIC ([5]; AG1115, 125 °C (refrigerator storage, autoclaved 30 minutes before tests), storage period 31 days) | MIC ([5]; AG1115, 125 °C (refrigerator storage, autoclaved 30 minutes before tests), storage period 54 days) | MIC ([5]; AG1115, 648 h, storage temp. −80 °C, storage period 27 days) | MIC ([5]; AG1115, storage temp. 4-8 °C, storage period 31 days) | MIC ([5]; AG1115, storage temp. 4-8 °C, storage period 54 days) | MIC ([5]; AG1115, storage temp. 20-25 °C, storage period 31 days) | MIC ([5]; AG1115, storage temp. 20-25 °C, storage period 59 days) | MIC ([5]; AG1115, storage temp. −80 °C, storage period 31 days) | MIC ([5]; AG1115, storage temp. −80 °C, storage period 54 days) | MIC ([6]; ATTC49775, 0 h, storage temp. 45-65 °C, storage period 0 days) | MIC ([6]; ATTC49775, 0 h, storage temp. −80 °C, storage period 0 days) | MIC ([6]; ATTC49775, 125 °C (refrigerator storage, autoclaved 30 minutes before tests), storage period 19 days) | MIC ([6]; ATTC49775, 125 °C (refrigerator storage, autoclaved 30 minutes before tests), storage period 31 days) | MIC ([6]; ATTC49775, 456 h, storage temp. 45-65 °C, storage period 19 days) | MIC ([6]; ATTC49775, storage temp. 45-65 °C, storage period 31 days) | MIC ([9]; ATTC33592, 456 h, storage temp. 4-8 °C, storage period 19 days)
125 µg/mL: MIC (Escherichia coli AG 1215 [3]; AG1215, 125 °C (refrigerator storage, autoclaved 30 minutes before tests), storage period 0 days) | MIC (Escherichia coli AG 1215 [3]; AG1215, 125 °C (refrigerator storage, autoclaved 30 minutes before tests), storage period 19 days) | MIC (Escherichia coli AG 1215 [3]; AG1215, 125 °C (refrigerator storage, autoclaved 30 minutes before tests), storage period 92 days) | MIC (Escherichia coli AG 1215 [3]; AG1215, 456 h, storage temp. 20-25 °C, storage period 19 days) | MIC (Escherichia coli AG 1215 [3]; AG1215, 456 h, storage temp. −80 °C, storage period 19 days) | MIC (Escherichia coli AG 1215 [3]; AG1215, storage temp. 20-25 °C, storage period 92 days) | MIC (Escherichia coli AG 1215 [3]; AG1215, storage temp. 45-65 °C, storage period 92 days)
3.9 µg/mL: MIC ([2]; ATTC49775, 456 h, storage temp. 4-8 °C, storage period 19 days) | MIC ([2]; ATTC49775, storage temp. 4-8 °C, storage period 31 days) | MIC ([5]; AG1115, storage temp. 45-65 °C, storage period 31 days) | MIC ([6]; ATTC49775, 0 h, storage temp. 20-25 °C, storage period 0 days) | MIC ([6]; ATTC49775, 456 h, storage temp. −80 °C, storage period 19 days) | MIC ([6]; ATTC49775, storage temp. −80 °C, storage period 31 days) | MIC ([9]; ATTC33592, storage temp. 4-8 °C, storage period 31 days)
31.2 µg/mL: MIC (Escherichia coli AG 1215 [3]; AG1215, 125 °C (refrigerator storage, autoclaved 30 minutes before tests), storage period 59 days) | MIC (Escherichia coli AG 1215 [3]; AG1215, 648 h, storage temp. 20-25 °C, storage period 27 days) | MIC (Escherichia coli AG 1215 [3]; AG1215, 648 h, storage temp. 45-65 °C, storage period 27 days) | MIC (Escherichia coli AG 1215 [3]; AG1215, storage temp. 20-25 °C, storage period 59 days) | MIC (Escherichia coli AG 1215 [3]; AG1215, storage temp. 20-25 °C, storage period 64 days) | MIC ([4]; ATTC33592, 125 °C (refrigerator storage, autoclaved 30 minutes before tests), storage period 19 days) | MIC ([4]; ATTC33592, 456 h, storage temp. 45-65 °C, storage period 19 days) | MIC ([5]; AG1115, 125 °C (refrigerator storage, autoclaved 30 minutes before tests), storage period 64 days) | MIC ([5]; AG1115, 125 °C (refrigerator storage, autoclaved 30 minutes before tests), storage period 92 days) | MIC ([5]; AG1115, 648 h, storage temp. 20-25 °C, storage period 27 days) | MIC ([5]; AG1115, storage temp. 20-25 °C, storage period 64 days)
15.6 µg/mL: MIC (Escherichia coli AG 1215 [1]; AG1215, storage temp. 4-8 °C, storage period 64 days) | MIC (Escherichia coli AG 1215 [3]; AG1215, storage temp. −80 °C, storage period 59 days) | MIC ([4]; ATTC33592, 0 h, storage temp. 45-65 °C, storage period 0 days) | MIC ([4]; ATTC33592, 0 h, storage temp. −80 °C, storage period 0 days) | MIC ([4]; ATTC33592, 125 °C (refrigerator storage, autoclaved 30 minutes before tests), storage period 0 days) | MIC ([4]; ATTC33592, 456 h, storage temp. 20-25 °C, storage period 19 days) | MIC ([5]; AG1115, 125 °C (refrigerator storage, autoclaved 30 minutes before tests), storage period 27 days) | MIC ([5]; AG1115, 125 °C (refrigerator storage, autoclaved 30 minutes before tests), storage period 59 days) | MIC ([5]; AG1115, 648 h, storage temp. 45-65 °C, storage period 27 days) | MIC ([5]; AG1115, storage temp. 4-8 °C, storage period 59 days) | MIC ([5]; AG1115, storage temp. 20-25 °C, storage period 54 days) | MIC ([5]; AG1115, storage temp. 45-65 °C, storage period 54 days) | MIC ([5]; AG1115, storage temp. 45-65 °C, storage period 59 days) | MIC ([5]; AG1115, storage temp. 45-65 °C, storage period 64 days) | MIC ([5]; AG1115, storage temp. −80 °C, storage period 59 days) | MIC ([5]; AG1115, storage temp. −80 °C, storage period 64 days) | MIC ([5]; AG1115, storage temp. −80 °C, storage period 92 days) | MIC ([6]; ATTC49775, 125 °C (refrigerator storage, autoclaved 30 minutes before tests), storage period 0 days) | MIC ([6]; ATTC49775, 456 h, storage temp. 20-25 °C, storage period 19 days) | MIC ([6]; ATTC49775, storage temp. 20-25 °C, storage period 31 days) | MIC ([7]; AG1115, 648 h, storage temp. 4-8 °C, storage period 27 days) | MIC ([7]; AG1115, storage temp. 4-8 °C, storage period 64 days) | MIC ([7]; AG1115, storage temp. 4-8 °C, storage period 92 days) | MIC ([9]; ATTC33592, 0 h, storage temp. 4-8 °C, storage period 0 days)
62.5 µg/mL: MIC (Escherichia coli AG 1215 [1]; AG1215, 648 h, storage temp. 4-8 °C, storage period 27 days) | MIC (Escherichia coli AG 1215 [1]; AG1215, storage temp. 4-8 °C, storage period 59 days) | MIC (Escherichia coli AG 1215 [3]; AG1215, 0 h, storage temp. 4-8 °C, storage period 0 days) | MIC (Escherichia coli AG 1215 [3]; AG1215, 0 h, storage temp. 45-65 °C, storage period 0 days) | MIC (Escherichia coli AG 1215 [3]; AG1215, 0 h, storage temp. −80 °C, storage period 0 days) | MIC (Escherichia coli AG 1215 [3]; AG1215, 125 °C (refrigerator storage, autoclaved 30 minutes before tests), storage period 27 days) | MIC (Escherichia coli AG 1215 [3]; AG1215, 125 °C (refrigerator storage, autoclaved 30 minutes before tests), storage period 64 days) | MIC (Escherichia coli AG 1215 [3]; AG1215, 456 h, storage temp. 4-8 °C, storage period 19 days) | MIC (Escherichia coli AG 1215 [3]; AG1215, 648 h, storage temp. −80 °C, storage period 27 days) | MIC (Escherichia coli AG 1215 [3]; AG1215, storage temp. 4-8 °C, storage period 92 days) | MIC (Escherichia coli AG 1215 [3]; AG1215, storage temp. 45-65 °C, storage period 59 days) | MIC (Escherichia coli AG 1215 [3]; AG1215, storage temp. 45-65 °C, storage period 64 days) | MIC (Escherichia coli AG 1215 [3]; AG1215, storage temp. −80 °C, storage period 64 days) | MIC (Escherichia coli AG 1215 [3]; AG1215, storage temp. −80 °C, storage period 92 days) | MIC ([5]; AG1115, storage temp. 20-25 °C, storage period 92 days) | MIC ([5]; AG1115, storage temp. 45-65 °C, storage period 92 days)
